tested on: human LINE-1; assay: Human LINE-1 retrotransposition assay (HeLa cell-based dual-luciferase reporter); details: Homo sapiens, HeLa, 72 h, Human LINE-1 activity inhibition; HeLa cells, reporter plasmid pYX017, Firefly/Renilla, 72 h incubation
Description: Representative Compounds of the Disclosure were tested for inhibition of retrotransposition activity of human LINE-1 in HeLa cells according to the following procedure.
HeLa cervical cancer cells were cultivated at 37° C. in a humidified 5% CO2 incubator in Dulbecco's Modified Eagle's Medium (DMEM)—high glucose, with 4500 mg/L glucose, L-glutamine, sodium pyruvate and sodium bicarbonate (Sigma), supplemented with 10% of heat inactivated fetal bovine serum (Thermo Fisher).
Assays were performed using reporter plasmid pYX017 as described (Xie, et al., 2011) with several modifications. The reporter assay was performed in 96-well white optical bottom plates. HeLa cells were seeded in wells 24 h prior to transfection and compound treatment so that cells were approximately 30% confluent on the day of transfection. Different cell plating densities were tested and a density of 2×10^3 cells was determined to be optimal.
Compounds were resuspended in DMSO. Serial dilutions (1:3) were prepared in DMSO. Medium containing different concentrations of the compounds were prepared by adding 2 μl of the compound dilution to 1 ml of the culture medium. The final concentration of DMSO in the medium was 0.2%.
FuGENE® HD transfection reagent (Promega, E2311, Lot 382574 and Lot 397842) was used to transfect the plasmids into the cells. The transfection reagent: DNA mixture was prepared in OpiMEM (Thermo Fisher) according to manufacturer's instructions. Different ratios of transfection reagent to DNA were tested and a ratio of 3:1 was determined to be optimal. Culture medium was removed from the cells and discarded. The transfection reagent: DNA mixture (5 μl) was mixed with the compound containing medium (100 μl/well) and this was added onto the cells of each well. Cells were incubated at 37° C./5% CO2 for different incubation time. A 72 h incubation time was determined to be optimal.
Luciferase reporter activity was quantified with the Dual-Luciferase® Reporter Assay System (Promega) according to manufacturer's instructions for multiwell plates except that cells were lysed directly on the multiwell plate with 30 μl of the passive lysis buffer (PLB) for 20 min at room temperature, with gentle shaking to ensure complete cell lysis.
Firefly and Renilla luciferase signals were measured using a SpectraMax i3× Multi-Mode Microplate Reader. Integration times of 100 ms and 10 ms were used to measure the Firefly and Renilla signals respectively. Relative L1 activity is calculated as Firefly/Renilla*1000 or Firefly/Renilla*10,000. Dose response inhibition data were fit to a four parameter logistic equation using non-linear regression (using Graphpad Prism 8), to determine IC50 values for each inhibitor.

| SMILES | IC50 [µM] |
| --- | --- |
| CC[C@]1(CO)OC(n2cc(OC)c(=O)[nH]c2=O)C[C@@H]1O (stereo partly drawn) [Cpd. No. 68, 1-((4S,5R)-5-ethyl-4-hydroxy-5-(hydroxymethyl)tetrahydrofuran-2-yl)-5-methoxypyrimidine-2,4(1H,3H)-dione] | 0.721 |
| C=C[C@]1(CO)O[C@@H](n2cc(C#N)c(=O)[nH]c2=O)C[C@@H]1O [Cpd. No. 69, 1-((2R,4S,5R)-4-hydroxy-5-(hydroxymethyl)-5-vinyltetrahydrofuran-2-yl)-2,4-dioxo-1,2,3,4-tetrahydropyrimidine-5-carbonitrile] | 6.2 |
| CC[C@]1(CO)OC(n2cc(Br)c(N)nc2=O)C[C@@H]1O (stereo partly drawn) [Cpd. No. 70, 4-amino-5-bromo-1-((4S,5R)-5-ethyl-4-hydroxy-5-(hydroxymethyl)tetrahydrofuran-2-yl)pyrimidin-2(1H)-one] | 0.432 |
| C#C[C@]1(CO)C=C[C@@H](n2cc(F)c(N)nc2=O)O1 [Cpd. No. 74, 4-amino-1-[(2S,5S)-5-ethynyl-5-(hydroxymethyl)-2H-furan-2-yl]-5-fluoro-pyrimidin-2-one] | > 50 |
| C#C[C@]1(CO)O[C@@H](n2nc(C)c3c(N)nc(F)nc32)C[C@@H]1O [Cpd. No. 75, (2R,3S,5R)-5-(4-amino-6-fluoro-3-methyl-1H-pyrazolo[3,4-d]pyrimidin-1-yl)-2-ethynyl-2-(hydroxymethyl)tetrahydrofuran-3-ol] | > 50 |
| C#C[C@@]1(CO)O[C@H](n2ccc(N)nc2=O)C[C@H]1O [Cpd. No. 76, 4-amino-1-((2S,4R,5S)-5-ethynyl-4-hydroxy-5-(hydroxymethyl)tetrahydrofuran-2-yl)pyrimidin-2(1H)-one] | > 6.25 |
| C#C[C@@]1(CO)O[C@@H](n2ccc(N)nc2=O)C[C@H]1O [Cpd. No. 77, 4-amino-1-((2R,4R,5S)-5-ethynyl-4-hydroxy-5-(hydroxymethyl)tetrahydrofuran-2-yl)pyrimidin-2(1H)-one] | > 6.25 |
| C#C[C@@]1(CO)O[C@@H](n2cnc3c(=O)[nH]c(N)nc32)C[C@H]1O [Cpd. No. 79, 2-amino-9-[(2R,4R,5S)-5-ethynyl-4-hydroxy-5-(hydroxymethyl)tetrahydrofuran-2-yl]-1H-purin-6-one] | 17 |
| C=C[C@]1(CO)O[C@@H](n2cc(Br)c(N)nc2=O)C[C@@H]1O [Cpd. No. 90, 4-amino-5-bromo-1-((2R,4S,5R)-4-hydroxy-5-(hydroxymethyl)-5-vinyltetrahydrofuran-2-yl)pyrimidin-2(1H)-one] | 0.658 |
| C=C[C@]1(CO)O[C@@H](n2cnc3c(NC4CC4)ncnc32)C[C@@H]1O [Cpd. No. 94, (2R,3S,5R)-5-(6-(cyclopropylamino)-9H-purin-9-yl)-2-(hydroxymethyl)-2-vinyltetrahydrofuran-3-ol] | > 50 |
| CC[C@]1(CO)O[C@@H](n2cnc3c(NC4CC4)ncnc32)C[C@@H]1O [Cpd. No. 96, (2R,3S,5R)-5-(6-(cyclopropylamino)-9H-purin-9-yl)-2-ethyl-2-(hydroxymethyl)tetrahydrofuran-3-ol] | 7 |
| CC[C@]1(CO)O[C@@H](n2cnc3c(NC4CC4)nc(N)nc32)C[C@@H]1O [Cpd. No. 97, (2R,3S,5R)-5-(2-amino-6-(cyclopropylamino)-9H-purin-9-yl)-2-ethyl-2-(hydroxymethyl)tetrahydrofuran-3-ol] | 0.946 |
| CC[C@]1(CO)O[C@@H](n2cc(C#N)c(=O)[nH]c2=O)C[C@@H]1O [Cpd. No. 98, 1-((2R,4S,5R)-5-ethyl-4-hydroxy-5-(hydroxymethyl)tetrahydrofuran-2-yl)-4-hydroxy-2-oxo-1,2-dihydropyrimidine-5-carbonitrile] | > 25 |
| CC[C@]1(CO)O[C@@H](n2cnc3c(NC4CC4)nc(F)nc32)C[C@@H]1O [Cpd. No. 99, (2R,3S,5R)-5-(6-(cyclopropylamino)-2-fluoro-9H-purin-9-yl)-2-ethyl-2-(hydroxymethyl)tetrahydrofuran-3-ol] | 5.53 |
| C=C[C@]1(CO)O[C@@H](n2cnc3c(O)ncnc32)C[C@@H]1O [Cpd. No. 100, 9-((2R,4S,5R)-4-hydroxy-5-(hydroxymethyl)-5-vinyltetrahydrofuran-2-yl)-9H-purin-6-ol] | 1.7 |
| C=C[C@]1(CO)O[C@@H](n2cnc3c(OC)nc(N)nc32)C[C@@H]1O [Cpd. No. 102, (2R,3S,5R)-5-(2-amino-6-methoxy-9H-purin-9-yl)-2-(hydroxymethyl)-2-vinyltetrahydrofuran-3-ol] | 1.78 |
| CC[C@]1(CO)O[C@@H](n2cc(OC)c(=O)[nH]c2=O)C[C@@H]1O [Cpd. No. 103, 1-((2R,4S,5R)-5-ethyl-4-hydroxy-5-(hydroxymethyl)tetrahydrofuran-2-yl)-5-methoxypyrimidine-2,4(1H,3H)-dione] | > 12.5 |
| CC[C@]1(CO)O[C@@H](n2cnc3c(OC)nc(N)nc32)C[C@@H]1O [Cpd. No. 125, (2R,3S,5R)-5-(2-amino-6-methoxy-9H-purin-9-yl)-2-ethyl-2-(hydroxymethyl)tetrahydrofuran-3-ol] | 0.11 |
| C=C[C@]1(CO)O[C@H](n2cc(C#N)c(=O)[nH]c2=O)C[C@@H]1O [compound 7, 1-((2S,4S,5R)-4-hydroxy-5-(hydroxymethyl)-5-vinyltetrahydrofuran-2-yl)-2,4-dioxo-1,2,3,4-tetrahydropyrimidine-5-carbonitrile] | 0.89 |
| C#C[C@]1(CO)O[C@@H](n2cnc3c(N)nc(F)nc32)[C@H](F)[C@@H]1O [compound 13, (2R,3R,4R,5R)-5-(6-amino-2-fluoro-9H-purin-9-yl)-2-ethynyl-4-fluoro-2-(hydroxymethyl)tetrahydrofuran-3-ol] | 370 |
| C#C[C@@]1(CO)C=C[C@H](n2cnc3c(N)ncnc32)O1 [compound 14, ((2R,5R)-5-(6-amino-9H-purin-9-yl)-2-ethynyl-2,5-dihydrofuran-2-yl)methanol] | 50 |
| Cc1cn([C@H]2C=C[C@@](C)(CO)O2)c(=O)[nH]c1=O [compound 21, 1-((2R,5S)-5-(hydroxymethyl)-5-methyl-2,5-dihydrofuran-2-yl)-5-methylpyrimidine-2,4(1H,3H)-dione] | > 50 |
| Cc1cn([C@H]2C[C@@H](O)[C@@](C)(CO)O2)c(=O)[nH]c1=O [compound 23, 1-((2R,4R,5R)-4-hydroxy-5-(hydroxymethyl)-5-methyltetrahydrofuran-2-yl)-5-methylpyrimidine-2,4(1H,3H)-dione] | > 50 |
| CC#C[C@@]1(CO)O[C@@H](n2cc(C)c(=O)[nH]c2=O)C[C@H]1O [compound 24, 1-((2R,4R,5S)-4-hydroxy-5-(hydroxymethyl)-5-(prop-1-yn-1-yl)tetrahydrofuran-2-yl)-5-methylpyrimidine-2,4(1H,3H)-dione] | > 50 |
| C=C[C@]1(CO)O[C@@H](n2cc(C)c(=O)[nH]c2=O)C[C@H]1O [compound 25, 1-((2R,4R,5R)-4-hydroxy-5-(hydroxymethyl)-5-vinyltetrahydrofuran-2-yl)-5-methylpyrimidine-2,4(1H,3H)-dione] | > 50 |

same assay, conditions: Human LINE-1 activity inhibition; HeLa cells, reporter plasmid pYX017, Firefly/Renilla, 72 h incubation

| SMILES | IC50 [µM] |
| --- | --- |
| C#C[C@@]1(CO)C=C[C@H](n2cc(F)c(=O)[nH]c2=O)O1 [compound 22, 1-((5R)-5-ethynyl-5-(hydroxymethyl)-2,5-dihydrofuran-2-yl)-5-fluoropyrimidine-2,4(1H,3H)-dione] | 20.1 |
